# Experimental data: article PMC8348589, “Scarlet Flax Linum grandiflorum (L.) In Vitro Cultures as a New Source of Antioxidant and Anti-Inflammatory Lignans” (Molecules, 2021)
# Where “and” joins values, the source holds several entries; their conditions need not be identical. Identical values can stand only once. Like-named read-outs stand apart in the source and are kept apart here.
# Experiments:
# COX-1 = target: T1, COX-1 (Ovis aries, UniProt P05979); assay: COX-1 inhibition assay (Cayman Chem kit)
# T1 sequence (P05979 25-600): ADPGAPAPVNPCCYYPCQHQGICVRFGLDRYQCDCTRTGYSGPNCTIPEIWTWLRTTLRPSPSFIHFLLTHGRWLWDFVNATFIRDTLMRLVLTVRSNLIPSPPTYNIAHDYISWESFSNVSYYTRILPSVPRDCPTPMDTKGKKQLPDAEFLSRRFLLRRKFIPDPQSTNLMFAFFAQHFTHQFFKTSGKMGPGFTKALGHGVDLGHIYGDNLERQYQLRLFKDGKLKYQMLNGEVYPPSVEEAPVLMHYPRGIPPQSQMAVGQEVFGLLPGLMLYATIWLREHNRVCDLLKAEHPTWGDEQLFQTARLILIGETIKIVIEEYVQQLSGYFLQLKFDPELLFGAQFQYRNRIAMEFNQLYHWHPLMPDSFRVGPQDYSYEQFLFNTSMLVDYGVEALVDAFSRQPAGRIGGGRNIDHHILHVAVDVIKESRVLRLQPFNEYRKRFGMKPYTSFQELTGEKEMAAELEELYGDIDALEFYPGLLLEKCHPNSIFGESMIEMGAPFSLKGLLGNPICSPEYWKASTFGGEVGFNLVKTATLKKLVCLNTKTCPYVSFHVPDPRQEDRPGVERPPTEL
# Procedure: (§2) COX-1 (Ovine) and COX-2 (Human) inhibition assays were performed using the corresponding Cayman Chem kits. The assays were performed according to the manufacturer’s instructions. Arachidonic acid (1.1 mM) was used as substrate. Reaction was followed at 590 nm in a BioTek Instrument Synergy II microplate reader.
# COX-2 = target: T2, COX-2 (Homo sapiens, UniProt P35354); assay: COX-2 inhibition assay (Cayman Chem kit)
# T2 sequence (P35354 18-604): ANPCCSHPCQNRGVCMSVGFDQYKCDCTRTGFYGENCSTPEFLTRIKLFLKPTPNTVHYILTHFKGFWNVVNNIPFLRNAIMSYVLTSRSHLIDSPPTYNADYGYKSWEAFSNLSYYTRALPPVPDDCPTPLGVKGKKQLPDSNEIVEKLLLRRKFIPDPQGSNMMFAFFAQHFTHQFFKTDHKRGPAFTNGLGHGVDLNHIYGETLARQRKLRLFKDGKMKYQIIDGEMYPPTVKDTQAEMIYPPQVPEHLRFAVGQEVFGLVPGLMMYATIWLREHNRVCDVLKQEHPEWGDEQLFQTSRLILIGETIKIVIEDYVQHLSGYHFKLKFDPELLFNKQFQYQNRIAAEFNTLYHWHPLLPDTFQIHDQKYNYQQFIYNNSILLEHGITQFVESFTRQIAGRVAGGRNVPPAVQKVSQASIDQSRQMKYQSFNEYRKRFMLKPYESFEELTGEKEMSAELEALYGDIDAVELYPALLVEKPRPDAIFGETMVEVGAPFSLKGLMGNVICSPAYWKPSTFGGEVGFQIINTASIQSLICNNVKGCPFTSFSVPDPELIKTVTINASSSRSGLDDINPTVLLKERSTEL
# Procedure: as §2
# [1] = system: L. grandiflorum callus cultures; assay: Biomass accumulation of callus cultures; assay type: cell-based, Linum grandiflorum; details: harvested day 30
# Procedure: (§1) Both the cotyledon (0.5 cm) and hypocotyl (1.0 cm) explants of L. grandiflorum of 5-day old seedlings, grown in vitro, were employed as the source of the explants and inoculated on three different experimental media containing sucrose (30g/L), agar (8 g/L) along with various concentrations of α-naphthaleneacetic acid (NAA: 0.1, 1.0, 2.5, 5.0, 10 mg/L), thidiazuron (TDZ: 0.1, 1.0, 2.5, 5.0, 10 mg/L) and a combination of both (TDZ: 0.1, 1.0, 2.5, 5.0, 10 mg/L and NAA: 0.1 mg/L constant) and placed in a growth room at 25 ± 2 °C temperature, using light intensity of 40 μmol/m^2/s at around a 16/8 h (light/dark) photoperiod. Four explants were inoculated for each condition. All experiments were conducted twice for each treatment. Media without PGRs addition were used as controls. The cultures were harvested at day 30 after inoculation. Biomass determination (fresh weights (FW) and dried weight (DW)) were determined for each condition. For dry weight (DW) estimation, cells were frozen and lyophilized 48 h.
# [2] = system: L. grandiflorum hypocotyl and cotyledon explants; assay: Callus induction frequency on MS medium with PGRs; assay type: cell-based, Linum grandiflorum; details: 1.0 mg/L NAA
# Procedure: as §1
# [3] = read-out: COX-1 IC50 (in µM), purified (neo)lignans
# [4] = read-out: COX-2 IC50 (in µM), purified (neo)lignans
smiles,measurement,setting,value
"COc1cc(C[C@@H](CO)[C@H](CO)Cc2ccc(O)c(OC)c2)ccc1O [SECO, secoisolariciresinol]",IC50,COX-1; [3],21.7 ± 1.9 µM
same,IC50,COX-2; [4],32.7 ± 0.8 µM
"COc1cc(C[C@H]2CO[C@H](c3ccc(O)c(OC)c3)[C@H]2CO)ccc1O [LARI, lariciresinol]",IC50,COX-1,24.2 ± 6.9 µM
same,IC50,COX-2,34.6 ± 2.9 µM
"COc1cc(C2Oc3c(OC)cc(/C=C/CO)cc3C2CO)ccc1O (stereo not shown) [DCA, dehydrodiconiferyl alcohol]",IC50,COX-1; [3],51.3 ± 0.3 µM
same,IC50,COX-2; [4],19.2 ± 2.5 µM
"O=C(O)Cc1cccc2ccccc12 [NAA, α-naphthalene acetic acid]",biomass accumulation (DW),"[1]; cotyledon-derived callus, 1.0 mg/L NAA",11.4 g/L
same,biomass accumulation (DW),[1]; hypocotyl-derived callus,13 g/L
same,callus induction frequency,[2]; cotyledon explants,87%
same,callus induction frequency,[2]; hypocotyl explants,95% and 95.2%
